This note sets out measurements from Sander's compilation of Henry's law constants (doi:10.1021/es00034a021).

Each structure is given as a SMILES string.

The data set in a line: Henry solubility constant Hcp at 298.15 K (mol/(m3 Pa)). The settings on record: reference: Tse et al. (1992).
Consider `ClCC(Cl)(Cl)Cl` [1,1,1,2-tetrachloroethane], for which the “Henry solubility constant Hcp” value is 0.0045. As to `CC(Cl)(Cl)Cl` [1,1,1-trichloroethane], the “Henry solubility constant Hcp” value stood at 0.00063. On to `ClC(Cl)C(Cl)Cl` [1,1,2,2-tetrachloroethane], for which the “Henry solubility constant Hcp” value stood at 0.026. `ClCC(Cl)Cl` [1,1,2-trichloroethane]: the “Henry solubility constant Hcp” value worked out at 0.011.

`C=C(Cl)Cl` [1,1-dichloroethene]: the “Henry solubility constant Hcp” value turned out to be 0.00035. For `CC(Cl)CCl` (stereo not drawn) [1,2-dichloropropane] the value was 0.0038.

With `ClC(Cl)Br` [bromodichloromethane], the “Henry solubility constant Hcp” value was 0.0048. Next, `ClC(Br)Br` [dibromochloromethane]: 0.0093. As for `BrCBr` [dibromomethane], the “Henry solubility constant Hcp” value was 0.011. Next, `ClCCl` [dichloromethane]: 0.0039; `ClC(Cl)(Cl)Cl` [tetrachloromethane]: 0.00038; `BrC(Br)Br` [tribromomethane]: 0.019. Take `ClC=C(Cl)Cl` [trichloroethene]: the “Henry solubility constant Hcp” value was 0.0011.
